Source: ChEMBL document CHEMBL3045684, “Compatibility of traditional and novel acaricides with bumblebees (Bombus terrestris): a first laboratory assessment of toxicity and sublethal effects” (Pest Manag Sci, 2010)
The source made the active and inactive calls. The rule behind the calls is not given here.

Key:
Bombus terrestris [1] = assay: Contact toxicity against worker Bombus terrestris (bumblebee) assessed as mortality at 10 mg a.i./l applied on the dorsal thorax for 11 weeks measured everyday for 3 days followed by once a week for 11 weeks; assay type: functional
Bombus terrestris [2] = assay: Contact toxicity against worker Bombus terrestris (bumblebee) assessed as reduction in reproduction at 10 mg a.i./l applied on the dorsal thorax for 11 weeks measured once a week for 11 weeks relative to control; assay type: functional, organism-based
Apis mellifera [3] = assay: Contact toxicity against Apis mellifera (honey bee) assessed per bee; assay type: functional
Bombus terrestris [4] = assay: Toxicity against worker Bombus terrestris (bumblebee) assessed as mortality at 10 mg a.i./l, po administered through sugar water for 11 weeks measured everyday for 3 days followed by once a week for 11 weeks; assay type: functional
Bombus terrestris [5] = assay: Toxicity against worker Bombus terrestris (bumblebee) assessed as mortality at 10 mg a.i./l, po administered through pollen for 11 weeks measured everyday for 3 days followed by once a week for 11 weeks; assay type: functional, organism-based
Bombus terrestris [6] = assay: Contact toxicity against Bombus terrestris (bumblebee) assessed per bee; assay type: functional
Apis mellifera [7] = assay: Contact toxicity against Apis mellifera (honey bee) assessed per bee after 48 hr; assay type: functional
Bombus terrestris [8] = assay: Toxicity against worker Bombus terrestris (bumblebee) assessed as reduction in reproduction at 96 mg a.i./l, po administered through sugar water for 11 weeks measured once a week for 11 weeks relative to control; assay type: functional, organism-based
Bombus terrestris [9] = assay: Toxicity against po dosed worker Bombus terrestris (bumblebee) administered through sugar water for 11 weeks measured everyday for 3 days followed by once a week for 11 weeks; assay type: functional
Bombus terrestris [10] = assay: Contact toxicity against worker Bombus terrestris (bumblebee) assessed as reduction in reproduction at 96 mg a.i./l applied on the dorsal thorax for 11 weeks measured once a week for 11 weeks relative to control; assay type: functional, organism-based
Bombus terrestris [11] = assay: Toxicity against worker Bombus terrestris (bumblebee) assessed as mortality at 96 mg a.i./l, po administered through sugar water for 11 weeks measured everyday for 3 days followed by once a week for 11 weeks; assay type: functional
Bombus terrestris [12] = assay: Contact toxicity against worker Bombus terrestris (bumblebee) assessed as mortality at 96 mg a.i./l applied on the dorsal thorax for 11 weeks measured everyday for 3 days followed by once a week for 11 weeks; assay type: functional
Bombus terrestris [13] = assay: Toxicity against worker Bombus terrestris (bumblebee) assessed as reduction in reproduction at 30 mg a.i./l, po administered through sugar water for 11 weeks measured once a week for 11 weeks relative to control; assay type: functional, organism-based
Bombus terrestris [14] = assay: Toxicity against worker Bombus terrestris (bumblebee) assessed as mortality at 96 mg a.i./l, po administered through sugar water measured up to 1 week; assay type: functional, organism-based
Bombus terrestris [15] = assay: Toxicity against worker Bombus terrestris (bumblebee) assessed as mortality at 96 mg a.i./l, po administered through pollen for 11 weeks measured everyday for 3 days followed by once a week for 11 weeks; assay type: functional, organism-based
Bombus terrestris [16] = assay: Toxicity against worker Bombus terrestris (bumblebee) assessed as mortality at 150 mg a.i./l, po administered through pollen for 11 weeks measured everyday for 3 days followed by once a week for 11 weeks; assay type: functional, organism-based
Bombus terrestris [17] = assay: Toxicity against worker Bombus terrestris (bumblebee) assessed as mortality at 150 mg a.i./l, po administered through sugar water for 11 weeks measured everyday for 3 days followed by once a week for 11 weeks; assay type: functional
Bombus terrestris [18] = assay: Toxicity against worker Bombus terrestris (bumblebee) assessed as reduction in reproduction at 150 mg a.i./l, po administered through pollen for 11 weeks measured once a week for 11 weeks; assay type: functional; set-up: scale not given: the % may be the effect or the level left
Bombus terrestris [19] = assay: Contact toxicity against worker Bombus terrestris (bumblebee) assessed as reduction in reproduction at 150 mg a.i./l applied on the dorsal thorax for 11 weeks measured once a week for 11 weeks relative to control; assay type: functional, organism-based
Bombus terrestris [20] = assay: Contact toxicity against worker Bombus terrestris (bumblebee) assessed as mortality at 150 mg a.i./l applied on the dorsal thorax for 11 weeks measured everyday for 3 days followed by once a week for 11 weeks; assay type: functional
Bombus terrestris [21] = assay: Toxicity against worker Bombus terrestris (bumblebee) assessed as mortality at 500 mg a.i./l, po administered through sugar water for 11 weeks measured everyday for 3 days followed by once a week for 11 weeks; assay type: functional
Bombus terrestris [22] = assay: Contact toxicity against worker Bombus terrestris (bumblebee) assessed as reduction in reproduction at 500 mg a.i./l applied on the dorsal thorax for 11 weeks measured once a week for 11 weeks relative to control; assay type: functional, organism-based
Bombus terrestris [23] = assay: Toxicity against worker Bombus terrestris (bumblebee) assessed as mortality at 500 mg a.i./l, po administered through pollen for 11 weeks measured everyday for 3 days followed by once a week for 11 weeks; assay type: functional, organism-based
Bombus terrestris [24] = assay: Toxicity against worker Bombus terrestris (bumblebee) assessed as reduction in reproduction at 500 mg a.i./l, po administered through sugar water for 11 weeks measured once a week for 11 weeks relative to control; assay type: functional, organism-based
Bombus terrestris [25] = assay: Toxicity against worker Bombus terrestris (bumblebee) assessed as reduction in reproduction at 500 mg a.i./l, po administered through pollen for 11 weeks measured once a week for 11 weeks; assay type: functional; set-up: scale not given: the % may be the effect or the level left
Bombus terrestris [26] = assay: Contact toxicity against worker Bombus terrestris (bumblebee) assessed as mortality at 500 mg a.i./l applied on the dorsal thorax for 11 weeks measured everyday for 3 days followed by once a week for 11 weeks; assay type: functional
Bombus terrestris [27] = assay: Contact toxicity against worker Bombus terrestris (bumblebee) assessed as reduction in reproduction at 0.8 mg a.i./l applied on the dorsal thorax for 11 weeks measured once a week for 11 weeks relative to control; assay type: functional, organism-based
Bombus terrestris [28] = assay: Toxicity against worker Bombus terrestris (bumblebee) assessed as mortality at 0.8 mg a.i./l, po administered through sugar water for 11 weeks measured everyday for 3 days followed by once a week for 11 weeks; assay type: functional
Bombus terrestris [29] = assay: Toxicity against worker Bombus terrestris (bumblebee) assessed as reduction in reproduction at 0.8 mg a.i./l, po administered through sugar water for 11 weeks measured once a week for 11 weeks relative to control; assay type: functional, organism-based
Bombus terrestris [30] = assay: Toxicity against worker Bombus terrestris (bumblebee) assessed as reduction in reproduction at 0.8 mg a.i./l, po administered through pollen for 11 weeks measured once a week for 11 weeks; assay type: functional, organism-based
Bombus terrestris [31] = assay: Contact toxicity against worker Bombus terrestris (bumblebee) assessed as mortality at 0.8 mg a.i./l applied on the dorsal thorax for 11 weeks measured everyday for 3 days followed by once a week for 11 weeks; assay type: functional
Bombus terrestris [32] = assay: Toxicity against worker Bombus terrestris (bumblebee) assessed as mortality at 0.8 mg a.i./l, po administered through pollen for 11 weeks measured everyday for 3 days followed by once a week for 11 weeks; assay type: functional, organism-based
Bombus terrestris [33] = assay: Toxicity against worker Bombus terrestris (bumblebee) assessed as reduction in reproduction at 200 mg a.i./l, po administered through pollen for 11 weeks measured once a week for 11 weeks; assay type: functional; set-up: scale not given: the % may be the effect or the level left
Bombus terrestris [34] = assay: Toxicity against worker Bombus terrestris (bumblebee) assessed as mortality at 200 mg a.i./l, po administered through sugar water for 11 weeks measured everyday for 3 days followed by once a week for 11 weeks; assay type: functional
Bombus terrestris [35] = assay: Contact toxicity against worker Bombus terrestris (bumblebee) assessed as mortality at 200 mg a.i./l applied on the dorsal thorax for 11 weeks measured everyday for 3 days followed by once a week for 11 weeks; assay type: functional
Bombus terrestris [36] = assay: Toxicity against worker Bombus terrestris (bumblebee) assessed as mortality at 200 mg a.i./l, po administered through pollen for 11 weeks measured everyday for 3 days followed by once a week for 11 weeks; assay type: functional
Bombus terrestris [37] = assay: Contact toxicity against worker Bombus terrestris (bumblebee) assessed as reduction in reproduction at 200 mg a.i./l applied on the dorsal thorax for 11 weeks measured once a week for 11 weeks relative to control; assay type: functional, organism-based

C/C1=C\C[C@@H]2C[C@@H](C[C@]3(CC[C@H](C)[C@@H](C)O3)O2)OC(=O)[C@@H]2CC[C@@H](O)[C@H]3OC/C(=C\C=C\[C@H](C)C1)[C@]32O [MILBEMECTIN]
mortality at 10 µg/mL (Bombus terrestris [1]): < 25%
Activity (Bombus terrestris [2]): inactive
LD50 (Apis mellifera [3]): <1 µg
mortality at 10 µg/mL (Bombus terrestris [4]): < 25%
Activity (Bombus terrestris [5]): inactive
LD50 (Bombus terrestris [6]): >100 µg

COc1ccc(-c2ccccc2)cc1NNC(=O)OC(C)C [BIFENAZATE]
LD50 (Apis mellifera [7]): 8.5 µg
Activity (Bombus terrestris [8]): Active
LD50 (Apis mellifera [3]): <1 µg
LC50 (Bombus terrestris [9]): 9.6 mgAi/L
NOAEL (Bombus terrestris [9]): 0.096 mgAi/L
Activity (Bombus terrestris [10]): inactive
mortality at 96 µg/mL (Bombus terrestris [11]): 95%
mortality at 96 µg/mL (Bombus terrestris [12]): < 25%
Activity (Bombus terrestris [13]): Active
Activity (Bombus terrestris [14]): Active
Activity (Bombus terrestris [15]): inactive
LD50 (Bombus terrestris [6]): >100 µg

Clc1ccccc1-c1nnc(-c2ccccc2Cl)nn1 [CLOFENTEZINE]
Activity (Bombus terrestris [16]): inactive
mortality at 150 µg/mL (Bombus terrestris [17]): 50%
Activity (Bombus terrestris [18]): 50%
Activity (Bombus terrestris [19]): Active
mortality at 150 µg/mL (Bombus terrestris [20]): < 25%

CC(C)OC(=O)C(O)(c1ccc(Br)cc1)c1ccc(Br)cc1 [BROMOPROPYLATE]
mortality at 500 µg/mL (Bombus terrestris [21]): < 25%
Activity (Bombus terrestris [22]): inactive
Activity (Bombus terrestris [23]): inactive
Activity (Bombus terrestris [24]): Active
Activity (Bombus terrestris [25]): 50%
mortality at 500 µg/mL (Bombus terrestris [26]): < 25%

Cc1cc(C)c(C2=C(OC(=O)CC(C)(C)C)C3(CCCC3)OC2=O)c(C)c1 [SPIROMESIFEN]
Activity (Bombus terrestris [27]): inactive
mortality at 0.8 µg/mL (Bombus terrestris [28]): < 25%
Activity (Bombus terrestris [29]): Active
Activity (Bombus terrestris [30]): Active
mortality at 0.8 µg/mL (Bombus terrestris [31]): < 25%
Activity (Bombus terrestris [32]): inactive

CC(C)(C)c1ccc(CCOc2ncnc3ccccc23)cc1 [FENAZAQUIN]
Activity (Bombus terrestris [33]): 50%
mortality at 200 µg/mL (Bombus terrestris [34]): 25%
LD50 (Apis mellifera [3]): <1 µg
mortality at 200 µg/mL (Bombus terrestris [35]): < 25%
mortality at 200 µg/mL (Bombus terrestris [36]): 90%
LD50 (Bombus terrestris [6]): >100 µg
Activity (Bombus terrestris [37]): inactive
